Data set [1] is described as follows: Kinetic aqueous solubility of the compound. To be noted: buffer; read-out: Kinetic_solubility. Type of data set: physicochemical.
Data set [2] can be described thus: Inhibition of recombinant mouse GALK1 using ATP as substrate incubated for 1 hr and measured by Kinase-Glo assay.
In data set [3] the target is Galactokinase (Homo sapiens, UniProt P51570). Kind of data set: Inhibition of recombinant human GALK1 using ATP as substrate incubated for 1 hr and measured by Kinase-Glo assay. In general terms: In Kinase-Glo more light means more ATP remaining.
Sequence of Galactokinase (P51570 whole entry): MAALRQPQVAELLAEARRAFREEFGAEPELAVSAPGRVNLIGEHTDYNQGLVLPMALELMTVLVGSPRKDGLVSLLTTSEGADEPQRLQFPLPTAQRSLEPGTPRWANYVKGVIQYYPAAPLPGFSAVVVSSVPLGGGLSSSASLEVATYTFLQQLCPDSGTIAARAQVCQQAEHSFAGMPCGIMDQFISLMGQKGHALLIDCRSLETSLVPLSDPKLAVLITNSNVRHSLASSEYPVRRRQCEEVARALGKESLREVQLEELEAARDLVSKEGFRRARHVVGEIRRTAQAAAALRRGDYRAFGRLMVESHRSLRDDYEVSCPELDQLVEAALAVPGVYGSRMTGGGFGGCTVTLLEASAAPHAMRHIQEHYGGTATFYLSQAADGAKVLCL
A short description of data set [4]: Stability of compound in rat microsomes assessed as half-life. Type of data set: ADME, Microsome.
The species named for data set [5] is Homo sapiens. Description: Inhibition of human GALK1 K252A/E253A double mutant relative to control. As to conditions: concentration not given here; call rule not given here. Set-up: concentration or dose not given beside the values.
A short description of data set [6]: Permeability of compound by PAMPA assay. Type of data set: ADME. To be noted: read-out: permeability.
A short description of data set [7]: Inhibition of human GALK1 K252A/E253A double mutant.

The text below walks through data of ChEMBL document CHEMBL5050861 (2021).

Structures are written as SMILES. ≈ marks a conversion by molar mass, not a printed value. A value given as a limit tells only on which side of the number the result lay.

One may read the IC50 as the concentration that inhibits the measured activity by half. By half-life is commonly meant the time in which the quantity being followed falls by half. `COCC1=C(C(=O)Nc2nncs2)C(c2ccccc2Cl)N=C(Nc2nc3ccccc3o2)N1` (stereo not drawn): in data set [1], the solubility kinetic was under 1 µg/mL. The figures for the IC50 in data set [2] (read-out: IC50) and in data set [3] (read-out: IC50) were 19.3 µM and 13.7 µM, respectively. Also, in data set [4], the half-life was over 30 min.
On to `CC1=C(C(=O)Nc2cc(C(=O)O)ccn2)[C@H](c2ccccc2Cl)N=C(Nc2nc3cccc(N)c3o2)N1`, for which the figures for the IC50 in data set [2] (read-out: IC50) and in data set [3] (read-out: IC50) were 1.72 µM and 0.086 µM, respectively.
For the compound `CCOC(=O)C1=C(C(C)C)NC(Nc2nc3ccccc3o2)=NC1c1ccccc1Cl` (stereo not drawn), the solubility kinetic in data set [1] is under 1 µg/mL. Further, the IC50 result in data set [2] and in data set [3] was “Not Active” in each case. Further, the half-life in data set [4] worked out at 5.75 min.
Turning to `COC(=O)c1ccnc(NC(=O)C2=C(C)NC(Nc3nc4cccc(N)c4o3)=NC2c2ccc(C)cc2Cl)c1` (stereo not drawn), in data set [1], the solubility kinetic was under 1 µg/mL. In addition, the IC50 in data set [2] (read-out: IC50) was found to be 7.08 µM; in data set [3] (read-out: IC50), 2.24 µM. Besides, the half-life in data set [4] is 25.3 min.
As to `CC1=C(C(=O)NCc2ccc(Cl)cc2)C(c2ccccc2Cl)N=C(Nc2nc3ccccc3o2)N1` (stereo not drawn), the solubility kinetic in data set [1] was under 1 µg/mL. Also, the IC50 entry in data set [2] and in data set [3] was “Not Active” each time. In data set [4], the half-life was found to be 11.9 min.
As to `CC1=C(C(=O)N(C)c2ccccc2)C(c2ccccc2Cl)N=C(Nc2nc3ccccc3o2)N1` (stereo not drawn), the solubility kinetic in data set [1] was under 1 µg/mL. The IC50 result in data set [2] and in data set [3] was “Not Active” throughout. Besides, the half-life in data set [4] is 1.18 min.
`COC(=O)c1ccnc(NC(=O)C2=C(C)NC(Nc3nc4ccccc4o3)=N[C@@H]2c2ccccc2Cl)c1`: in data set [1], the solubility kinetic was under 1 µg/mL. Further, the IC50 result in data set [2] and in data set [3] was “Not Active” throughout. In addition, the half-life in data set [4] was 25.6 min.
As to `CC1=C(C(=O)Nc2nncs2)C2(Cc3ccccc32)N=C(Nc2nc3ccccc3o2)N1` (stereo not drawn), in data set [1], the solubility kinetic turned out to be 50.9 µg/mL (≈ 115 µM). The IC50 entry in data set [2] and in data set [3] was “Not Active” in each case. For the same compound, the half-life in data set [4] was over 30 min.
In general, inhibition refers to the share of the control response that was lost under treatment. `COc1ccc(C2N=C(Nc3nc4ccc(F)cc4o3)NC(C)=C2C(=O)Nc2cc(C(=O)O)ccn2)c(Cl)c1` (stereo not drawn): the solubility kinetic in data set [1] turned out to be 8.3 µg/mL (≈ 15.1 µM). For the same compound, the IC50 in data set [2] (read-out: IC50) was determined as 3.06 µM; in data set [7] (read-out: IC50), 0.3 µM. In data set [5], this compound gave an inhibition of 100%. Moreover, the Papp in data set [6] was under 10 ×10⁻⁶ cm/s. Moreover, in data set [4], the half-life is over 30 min.
Regarding `CC1=C(C(=O)NCc2cn(C)cn2)[C@@H](c2ccccc2Cl)N=C(Nc2nc3ccccc3o2)N1`, in data set [1], the solubility kinetic came to 40.5 µg/mL (≈ 85.1 µM). Further, the IC50 result in data set [2] and in data set [3] was “Not Active” throughout. Further, in data set [4], the half-life stood at 8.73 min.
Regarding `CC1=C(C(=O)Nc2cc(C(=O)O)ccn2)C(c2ccc(Cl)cc2Cl)N=C(Nc2nc3ccc(F)cc3o2)N1` (stereo not drawn), the solubility kinetic in data set [1] was under 1 µg/mL. Also, the IC50 in data set [2] (read-out: IC50) worked out at 3.85 µM; in data set [7] (read-out: IC50), 0.345 µM. The inhibition in data set [5] is 85%. For the same compound, in data set [6], the Papp is under 1 ×10⁻⁶ cm/s. Moreover, the half-life in data set [4] was over 30 min.
Take `COC(=O)C1=C(C(F)(F)F)NC(Nc2nc3ccccc3o2)=NC1c1ccccc1Cl` (stereo not drawn): the solubility kinetic in data set [1] turned out to be 2.65 µg/mL (≈ 5.88 µM). Also, the IC50 result in data set [2] and in data set [3] was “Not Active” throughout. Besides, the half-life in data set [4] came out at 10.5 min.
On to `CC1=C(C(=O)Nc2cccc(C(=O)O)c2)C(c2ccccc2Cl)N=C(Nc2nc3ccccc3o2)N1` (stereo not drawn), for which the solubility kinetic in data set [1] stood at 59.1 µg/mL (≈ 118 µM). Further, the IC50 stood at 6.11 µM in data set [2] (read-out: IC50) and 3.1 µM in data set [7] (read-out: IC50). This compound registered an inhibition in data set [5] of 96%. For the same compound, the Papp in data set [6] is under 1 ×10⁻⁶ cm/s. Also, in data set [4], the half-life is over 30 min.
For `CC1=C(C(=O)Nc2cc(C(=O)O)ccn2)C(c2ccccc2Cl)N=C(Nc2nc3cc(N)ccc3o2)N1` (stereo not drawn), the solubility kinetic in data set [1] was over 76 µg/mL. The figures for the IC50 in data set [2] (read-out: IC50) and in data set [7] (read-out: IC50) were 21.7 µM and 5.5 µM, respectively. The inhibition in data set [5] amounted to 100%. In data set [6], the Papp was determined as 10 ×10⁻⁶ cm/s. Besides, in data set [4], the half-life is over 30 min.
Take `CC1=C(C(=O)NCc2nc3ccccc3n2C)C(c2ccccc2Cl)N=C(Nc2nc3ccccc3o2)N1` (stereo not drawn): in data set [1], the solubility kinetic is under 1 µg/mL. The IC50 in data set [2] (read-out: IC50) was 13.7 µM; in data set [7] it was “Not Active”. For the same compound, in data set [5], the inhibition turned out to be 48%. Also, the Papp in data set [6] was under 10 ×10⁻⁶ cm/s. Besides, the half-life in data set [4] stood at 4.52 min.
As for `CC1=C(C(=O)Nc2cc(C(=O)O)ccn2)C(c2ccccc2Cl)N=C(Nc2nc3cccc(C)c3o2)N1` (stereo not drawn), the solubility kinetic in data set [1] is over 76 µg/mL. In addition, the results for the IC50 in data set [2] (read-out: IC50) and in data set [7] (read-out: IC50) were 6.85 µM and 0.365 µM, respectively. This compound registered an inhibition in data set [5] of 100%. Also, in data set [6], the Papp was under 10 ×10⁻⁶ cm/s. In addition, the half-life in data set [4] is over 30 min.
On to `CCOC(=O)C1=C(C)NC(Nc2nc3ccccc3o2)=NC1c1ccccc1Cl` (stereo not drawn), for which, in data set [1], the solubility kinetic is under 1 µg/mL. Moreover, the results for the IC50 in data set [2] (read-out: IC50) and in data set [3] were 13.7 µM and “Not Active”, respectively. Also, the half-life in data set [4] stood at 19.3 min.
In the case of `CC1=C(C(=O)Nc2ccccc2)C(c2ccccc2Cl)N=C(Nc2nc3ccccc3o2)N1` (stereo not drawn), the solubility kinetic in data set [1] was under 1 µg/mL. The figures for the IC50 in data set [2] (read-out: IC50) and in data set [7] (read-out: IC50) were 13.7 µM and 0.97 µM, respectively. Besides, the inhibition in data set [5] was 57%. For the same compound, in data set [6], the Papp is under 10 ×10⁻⁶ cm/s. For the same compound, the half-life in data set [4] amounted to 24 min.
For `CC1=C(C(=O)Nc2cc(C(=O)O)ccn2)C(c2ccccc2Cl)N=C(Nc2nc3cc(F)ccc3o2)N1` (stereo not drawn), in data set [1], the solubility kinetic was under 10000 µg/mL. Also, the figures for the IC50 in data set [2] (read-out: IC50) and in data set [7] (read-out: IC50) were 17.2 µM and 3.6 µM, respectively. For the same compound, the inhibition in data set [5] is 100%. Further, in data set [6], the Papp is under 10 ×10⁻⁶ cm/s. Moreover, the half-life in data set [4] is under 10 min.
In the case of `CC1=C(C(=O)Nc2cc(C(=O)O)ccn2)C(c2cccc(S(N)(=O)=O)c2)N=C(Nc2nc3ccc(F)cc3o2)N1` (stereo not drawn), the solubility kinetic in data set [1] was over 84 µg/mL. The figures for the IC50 in data set [2] (read-out: IC50) and in data set [7] (read-out: IC50) were 38.5 µM and over 15 µM, respectively. In addition, in data set [5], the inhibition stood at 75%. In addition, the Papp in data set [6] was under 10 ×10⁻⁶ cm/s. Further, in data set [4], the half-life was over 30 min.
As to `CC1=C(C(=O)NCc2ccccc2Cl)C(c2ccccc2Cl)N=C(Nc2nc3ccccc3o2)N1` (stereo not drawn), the solubility kinetic in data set [1] is under 1 µg/mL. In addition, the IC50 result in data set [2] and in data set [3] was “Not Active” each time. Besides, the half-life in data set [4] was 4.22 min.
For the compound `CC1=C(C(=O)Nc2cc(C(=O)O)ccn2)C(c2ccccc2Cl)N=C(Nc2nc3cccc(C(F)(F)F)c3o2)N1` (stereo not drawn), the solubility kinetic in data set [1] was determined as 61.1 µg/mL (≈ 107 µM). For the same compound, the IC50 was 48.5 µM in data set [2] (read-out: IC50) and over 15 µM in data set [7] (read-out: IC50). Besides, in data set [5], the inhibition was determined as 100%. Besides, the Papp in data set [6] is under 1 ×10⁻⁶ cm/s. For the same compound, the half-life in data set [4] was over 30 min.
Consider `COC(=O)c1ccccc1NC(=O)C1=C(C)NC(Nc2nc3ccccc3o2)=NC1c1ccccc1Cl` (stereo not drawn), for which the IC50 result in data set [2] and in data set [3] was “Not Active” in each case.
`CC1=C(C(=O)Nc2cc(C(=O)O)ccn2)C(c2ccccc2Cl)N=C(Nc2nc3cc(C)ccc3o2)N1` (stereo not drawn): the solubility kinetic in data set [1] was under 1 µg/mL. Also, the IC50 in data set [2] (read-out: IC50) stood at 3.06 µM; in data set [7] (read-out: IC50), 0.611 µM. The inhibition in data set [5] is 100%. In addition, the Papp in data set [6] is under 1 ×10⁻⁶ cm/s. Also, the half-life in data set [4] was over 30 min.
Take `CCOC(=O)c1ccc(NC(=O)C2=C(C)NC(Nc3nc4ccccc4o3)=NC2c2ccccc2Cl)cc1` (stereo not drawn): in data set [1], the solubility kinetic was under 1 µg/mL. Further, the Papp in data set [6] was found to be 8.8 ×10⁻⁶ cm/s. The IC50 in data set [3] (read-out: IC50) came out at 3.85 µM. Also, in data set [4], the half-life is over 30 min.
